8 compounds from US11382898B2, “BAX activators and uses thereof in cancer therapy” (Albert Einstein College of Medicine, priority 2017, dated 2022) can be followed below.

For experiment [1], the system named is THP-1 and OCI-AML3 cells. Kind of experiment: Viability assay of AML cells treated with venetoclax or BTSA1 alone or in combination. The experiment is classed as cell-based, human. The settings on record: BTSA1 at ~EC10 dose, 24 hrs. The source says: Moreover, the synergistic effect of these two drugs is observed within hours, consistent with their kinetics of mitochondrial apoptosis activation.

The subject of experiment [2] is OCI-AML3 leukemia cells. The experiment is described as follows: Synergistic cytotoxicity with BCL-2 inhibitors in OCI-AML3 leukemia cells. Particulars: for pIC50: Homo sapiens, OCI-AML-3, 24 h, 24 h treatment; for synergy with ABT-199 (venetoclax) / synergy with ABT-263 (navitoclax): non-cytotoxic doses, 24 h. The experiment is classed as cell-based, human.
Description: Viability assays were performed in at least triplicate and the data normalized to vehicle-treated control wells. IC50 values were determined by nonlinear regression analysis using Prism software (Graphpad).
Experiment [3] deals with T1, BCL-XL (Homo sapiens, UniProt Q07817).
T1 construct: BCL-XLΔC, MCL-1ΔNΔC, BFL-1/A1ΔC: 200 nM; made in house; host or cells: Escherichia coli
T1 sequence (Q07817 1-212 limits assumed): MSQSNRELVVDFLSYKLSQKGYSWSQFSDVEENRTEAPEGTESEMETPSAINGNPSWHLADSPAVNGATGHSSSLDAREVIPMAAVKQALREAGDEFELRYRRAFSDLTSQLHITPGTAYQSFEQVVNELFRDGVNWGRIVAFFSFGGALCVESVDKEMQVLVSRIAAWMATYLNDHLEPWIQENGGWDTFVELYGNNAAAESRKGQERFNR
Kind of experiment: Competitive fluorescence polarization assay, FITC-BIM SAHBA2 bound to BCL-XL. The format is binding. Particulars: BTSA1 at 50 μM. The protocol: (§1) Fluorescence polarization assays (FPA) were performed as previously described (Gavathiotis et al., 2012). Firstly, direct binding isotherms were generated by incubating FITC-BIM SAHBA2 (50 nM) with serial dilutions of full-length BAX, BCL-XLΔC, MCL-1ΔNΔC, BFL-1/A1ΔC and fluorescence polarization was measured at 20 minutes on a F200 PRO microplate reader (TECAN). Subsequently, in competition assays, a serial dilution of small molecule or acetylated BIM SAHBA2 (Ac-BIM SAHB) was combined with FITC-BIM SAHBA2 (50 nM), followed by the addition of recombinant protein at ˜EC75 concentration, as determined by the direct binding assay (BAX: 500 nM; BCL-XLΔC, MCL-1ΔNΔC, BFL-1/A1ΔC: 200 nM).
(§2) A competitive fluorescence polarization assay that evaluates the capacity of compounds to compete a fluorescein-labeled stapled peptide of the BIM BH3 helix, FITC-BIM SAHBA2, from the BAX trigger site, was used to determine the binding potency (Gavathiotis et al., 2008; Gavathiotis et al., 2012).
For orientation: Fluorescence polarisation rises when a labelled molecule tumbles more slowly, as on binding a larger partner.

Experiment [4] deals with MCL-1. Kind of experiment: Competitive fluorescence polarization assay, FITC-BIM SAHBA2 bound to MCL-1. The experiment is classed as binding, Human. The settings on record: BTSA1 at 50 μM. The method, then: as §1, §2
In experiment [5] the test system is BFL-1/A1. Kind of experiment: Competitive fluorescence polarization assay, FITC-BIM SAHBA2 bound to BFL-1/A1. Particulars: BTSA1 at 50 μM. The format is binding, Human. The method, then: as §1, §2
Experiment [6] concerns the target T2, BAX (Homo sapiens, UniProt Q07812).
T2 construct: with serial dilutions of full-length BAX, BCL-XLΔC, MCL-1ΔNΔC, BFL-1/A1ΔC; made in house; host or cells: Escherichia coli
The experiment is described as follows: Competitive fluorescence polarization assay, FITC-BIM SAHBA2 from the BAX trigger site. Particulars: for pIC50: FITC-BIM SAHBA2 50 nM, BAX 500 nM, read-out: IC50, competition of FITC-BIM SAHBA2 from BAX. The format is binding. The protocol: as §1, §2

The test system of experiment [7] is anti-apoptotic BCL-2 family proteins (BCL-2, BCL-XL, MCL-1). The experiment is described as follows: Pull down assay with biotinylated BTSA1, anti-apoptotic BCL-2 family proteins. The experiment is classed as binding, human. The method, then:
OCI-AML3, MEFs and HPB-ALL cytosolic and mitochondrial lysates were generated by Dounce Homogenization. Cells were lysed by Dounce homogenizer in lysis buffer (LB) containing 10 mM Tris, pH 7.5, 1 mM EGTA, 200 mM sucrose plus Complete Protease Inhibitors. The cell lysates were centrifuged at 700×g for 10 min to remove unbroken cells and nuclei. The supernatants were centrifuged at 12000× g for 10 min at 4° C. and the resulting pellet was collected as the mitochondrial fraction and supernatant as the cytosolic fraction. The mitochondrial fraction was resuspended in LB+1% CHAPS to solubilize proteins. […] Biotin capture was achieved by incubation with high capacity streptavidin agarose (50 μL 50% slurry/reaction—Pierce) for 1 hour at room temperature. The streptavidin beads were washed (3×) at room temperature with 1×PBS. Cellular BAX bound to the biotinylated-BTSA1 was eluted by boiling for 20 minutes in LDS buffer and then subjected to BAX (2772S, Cell Signaling), BCL-2 (BD Biosciences Cat. 610539), BCL-XL (Cell Signaling Cat. 2764) and MCL-1 (Cell Signaling Cat. 4572) western blot analysis.

Experiment [8] deals with T2, BAX. Kind of experiment: Direct fluorescence polarization binding of fluorescein-labeled BTSA1 to BAX. The settings on record: fluorescein-labeled compound.

Each structure is given as a SMILES string. pEC50, pIC50: −log10 of the molar value. Positions of bridges follow the written chain, without caps; N, C: chain ends. Non-standard residues stand in square brackets, D forms with d. Residues, ends and D or L forms follow the SMILES beside them. S5 = C=CCCC[C@](C)(N)C(=O)O

By pIC50 is commonly meant −log10 of the IC50, conventionally taken in molar units. The pEC50 is −log10 of the EC50, conventionally taken in molar units.

T2 sequence (Q07812 whole entry): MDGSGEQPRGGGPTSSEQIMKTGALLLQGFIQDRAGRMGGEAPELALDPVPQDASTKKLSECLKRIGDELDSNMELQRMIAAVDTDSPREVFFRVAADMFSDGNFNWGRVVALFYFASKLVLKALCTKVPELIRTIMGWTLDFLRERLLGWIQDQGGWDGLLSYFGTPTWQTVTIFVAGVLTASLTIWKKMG

As to `CC1(C)CCC(CN2CCN(c3ccc(C(=O)NS(=O)(=O)c4ccc(NCC5CCOCC5)c([N+](=O)[O-])c4)c(Oc4cnc5[nH]ccc5c4)c3)CC2)=C(c2ccc(Cl)cc2)C1` [ABT-199, 4-(4-{[2-(4-Chlorophenyl)-4,4-dimethyl-1-cyclohexen-1-yl]methyl}-1-piperazinyl)-N-({3-nitro-4-[(tetrahydro-2H-pyran-4-ylmethyl)amino]phenyl}sulfonyl)-2-(1H-pyrrolo[2,3-b]pyridin-5-yloxy)benzamide], the “EC50 of venetoclax in combination with BTSA1” value in experiment [1] is given as “low nM concentration”. Besides, the values for the pIC50 in experiment [2] (BAX activator concentration 0.625 μM), in experiment [2] (BAX activator concentration 1.25 μM) and in experiment [2] (BAX activator concentration […]) were 5.41, 5.32 and 5.44, respectively.
Turning to `CC[C@H](C)[C@H](NC(=O)[C@H](Cc1c[nH]c2ccccc12)NC(=O)[C@@H](NC(=O)[C@H](CCC(=O)O)NC(C)=O)[C@@H](C)CC)C(=O)N[C@@H](C)C(=O)N[C@@H](CCC(N)=O)C(=O)N[C@@H](CCC(=O)O)C(=O)N[C@@H](CC(C)C)C(=O)N[C@@H](CCCNC(=N)N)C(=O)N[C@@]1(C)CCCC=CCCC[C@@](C)(C(=O)N[C@@H](Cc2ccccc2)C(=O)N[C@@H](CC(N)=O)C(=O)N[C@@H](C)C(=O)N[C@@H](Cc2ccc(O)cc2)C(=O)N[C@@H](Cc2ccc(O)cc2)C(=O)N[C@@H](C)C(N)=O)NC(=O)[C@H](CC(=O)O)NC(=O)CNC(=O)[C@H]([C@@H](C)CC)NC1=O` [BIM SAHBA2] (Ac-EIWIAQELR[S5]IGD[S5]FNAYYA-NH2; staple 10-14), in experiment [3], the “capacity to compete FITC-BIM SAHBA2 from BCL-XL” value is recorded as “effectively competed”. Further, in experiment [4], the “capacity to compete FITC-BIM SAHBA2 from MCL-1” value was “effectively competed”. In experiment [5], the “capacity to compete FITC-BIM SAHBA2 from BFL-1/A1” value was “effectively competed”. Further, in experiment [6], the pIC50 is 6.55.
With `CC1=NN(c2nc(-c3ccccc3)cs2)C(=O)C1=NNc1nccs1` [BTSA2], in experiment [6], the “reduction in binding capacity to BAX relative to BTSA1” value is approximately 10 fold and the pIC50 is 5.43.
For `Cc1nc(N/N=C2\C(=O)N(c3nc(-c4ccccc4)cs3)N=C2c2ccccc2)sc1C` [GAV2-006], in experiment [2], the “synergy with ABT-199 (venetoclax)” value is “significant synergistic cytotoxicity” and the “synergy with ABT-263 (navitoclax)” value is recorded as “significant synergistic cytotoxicity”.
As for `O=C1/C(=N\Nc2nccs2)C(c2ccccc2)=NN1c1nc(-c2ccc(F)cc2)cs1` [GAV2-008], in experiment [2], the “synergy with ABT-199 (venetoclax)” value is “significant synergistic cytotoxicity” and the “synergy with ABT-263 (navitoclax)” value is recorded as “significant synergistic cytotoxicity”.
For `COc1ccc(C2=NN(c3nc(-c4ccccc4)cs3)C(=O)/C2=N\Nc2nccs2)cc1` [GAV2-010], the “synergy with ABT-199 (venetoclax)” value in experiment [2] is “significant synergistic cytotoxicity”.
In the case of `O=C(CCCC[C@H]1SCC2NC(=O)NC21)NCCCOCCOCCOCCCNC(=O)c1ccc(-c2csc(N3N=C(c4ccccc4)C(=NNc4nccs4)C3=O)n2)cc1` (stereo partly drawn) [biotinylated BTSA1, N-(15-oxo-19-((4R)-2-oxohexahydro-1H-thieno[3,4-d]imidazol-4-yl)-4,7,10-trioxa-14-azanonadecyl)-4-(2-(5-oxo-3-phenyl-4-(2-(thiazol-2-yl)hydrazono)-4,5-dihydro-1Hpyrazol-1-yl)thiazol-4-yl)benzamide], the “pull down of anti-apoptotic BCL-2 family proteins” value in experiment [7] is recorded as “failed to pull down”. In experiment [6], the “reduction in binding capacity to BAX relative to BTSA1” value is on record as “ten-fold” and the pIC50 is 5.70.
In experiment [8], `O=C(NCCCOCCOCCOCCCNC(=S)Nc1ccc2c(c1)C(=O)OC21c2ccc(O)cc2Oc2cc(O)ccc21)c1ccc(-c2csc(N3N=C(c4ccccc4)C(=NNc4nccs4)C3=O)n2)cc1` [fluorescein-labeled BTSA1, N-(1-((3′,6′-dihydroxy-3-oxo-3H-spiro[isobenzofuran-1,9′-xanthen]-5-yl)amino)-1-thioxo-6,9,12-trioxa-2-azapentadecan-15-yl)-4-(2-(5-oxo-3-phenyl-4-(2-(thiazol-2-yl)hydrazineylidene)-4,5-dihydro-1H-pyrazol-1-yl)thiazol-4-yl)-benzamide] showed a pEC50 of 6.84.
